Test results published in US11285159B2 (AbbVie Inc., priority 2019, dated 2022).
Where two headings read alike, the source gives them in different places.

Columns and labels:
[1] = tested on: myeloproliferative neoplasm patient samples cultured ex vivo and myeloproliferative neoplasm-derived cell lines bearing the activating JAK-2 V617F mutation; settings: cited from earlier work
[2] = tested on: myeloproliferative neoplasm cells; endogenous erythroid colonies representing malignant PV clones; settings: cited from earlier work
[3] = tested on: spleen volume; assay: exposure-spleen volume response model, parameter estimation (NONMEM); design: species or system human; settings: spleen volume inhibition; R/R MF, cohort 1a data
Description: Spleen volume data up to only week 40 was used in the model to improve model predictability. […] Inter-individual variability with full correlation matrix was incorporated on estimated baseline spleen volume, kout, EC50NAV and EC50RUX using exponential function and the residual variability was characterized using combined proportional and additive error model.
At baseline, the rates of the spleen volume model are set to be the same kin=kout due to a theoretical steady state assumption without treatment interference. This leads to an initial condition for the SV compartment of 1, where SV predictions are derived by multiplying this compartment with baseline. Disease progression was included in the model with the factor “Eprog” on “kin”.

[4] = tested on: 22 cell lines consisting of multiple leukemia and lymphoma types spanning both B-cell and T-cell malignancies; settings: cited from earlier work
[5] = tested on: resistance to JAK-2 inhibitors associated with BCL-XL elevation; settings: cited from earlier work
[6] = tested on: platelets; assay: exposure-platelet response model, parameter estimation (NONMEM); design: species or system human
Description: The model was based on established models described in the literature (Kaefer, A., Yang, J., Noertersheuser, P. et al. Cancer Chemother Pharmacol (2014) 74: 593. doi:10.1007/s00280-014-2530-2530; and Friberg, Lena E., et al. “Model of chemotherapy-induced myelosuppression with parameter consistency across drugs. “Journal of clinical oncology 20.24 (2002): 4713-4721, both references hereby incorporated by reference in their entireties).
PK model for ruxolitinib was described by a two-compartment model with a lag-time in absorption (Equations 2a through 2c).
The time course of platelet response was modeled using a semi-physiological model that comprised a progenitor cell compartment, three transition compartments representing the maturation chain in the bone marrow and a peripheral blood compartment (see FIG. 2). A feedback system was used in this model to describe the increase in the maturation rate in bone marrow when the platelet level in the blood compartment is below baseline and decrease in the maturation rate when the platelet level in blood is above baseline. […] Equations 3 to 9 represent the PD model.
The model is initialized at 0 for the PK related compartments, at POOL for the PROLIF compartment, and at 1 for the maturation and circulation compartments. The platelet prediction is obtained by (Baseline Platelets)×PLT1×PLT2. The rates of the Platelet1 model are set to be the same ktrans=kin=kout due to a steady state assumption without treatment interference.
A factor was included on the baseline platelet count such that baseline(t=−84 days)=factor×baseline(t=0 days)
This yields a relative pseudo baseline at initiation of ruxolitinib (referred to as ‘ruxolitinib factor’ on baseline platelet count). […] The first 56 days of data were fitted to avoid influence of long-term disease effects on the model.
No inter-individual variability was estimated on ruxolitinib EC50 since limited data precluded its appropriate estimation.

[7] = tested on: subjects with primary or secondary myelofibrosis; assay: Phase 2 study of navitoclax in combination with ruxolitinib (Example 1)
Description: Treatment continued until the end of clinical benefit, unacceptable toxicity, or discontinuation. The primary efficacy endpoint was percentage reduction in splenic volume from baseline. Secondary endpoints included effect on total symptom score (TSS), overall response rate, rate of anemia response, improvement in bone marrow fibrosis, and safety profile.
For this study, inclusion criteria included the following: • 1. Subject must be ≥18 years of age. • 2. Subject has documented diagnosis of Intermediate or High-Risk Primary Myelofibrosis, Post-Polycythemia Vera Myelofibrosis (PPV-MF), or Post-Essential Thrombocythemia Myelofibrosis (PET-MF) as defined by the World Health Organization classification. • 3. Subject must be ineligible or unwilling to undergo stem cell transplantation at time of study entry. • 4. Subject must have an Eastern Cooperative Oncology Group (ECOG) Performance Score of 0, 1, or 2. • 5. […] Prior treatment with JAK-2 inhibitor for at least 12 weeks • b. Prior treatment with JAK-2 inhibitor for at least 28 days complicated by any of the following: • i. […] Splenic irradiation within 6 months prior to screening, or prior splenectomy. • 2. Leukemic transformation (>10% blasts in peripheral blood or bone marrow biopsy). • 3. Subject is currently on medications that interfere with coagulation (including warfarin) or platelet function with the exception of low dose aspirin (up to 100 mg) and low-molecular-weight heparin (LMWH). • 4. Prior therapy with a BH3 mimetic compound. • 5.
Subjects needed to have received ruxolitinib therapy for at least 12 weeks prior to study enrollment without interruption, have splenomegaly as defined by a spleen palpable ≥5 cm below costal margin and be currently on a stable dose of ≥10 mg BID of ruxolitinib.

[8] = tested on: platelets; settings: effect on platelets, cited from earlier work; for Ruxolitinib EC50: fixed to published value
[9] = co-administration of navitoclax with rifampin; format: in vivo, human; settings: 600 mg once daily rifampin for 4 days; 11 subjects with cancer
Description: Increased dosage should be made with frequent monitoring of safety and efficacy.

[10] = 400 mg once daily ketoconazole; 10 subjects with cancer; cited from earlier work
[11] = tested on: tumors in mice bearing the Eμ-TEL-JAK-2 transgene or PDX mice bearing JAK-2-mutated B-ALL cells; settings: cited from earlier work
[12] = biological target: T1, BCL-W (Homo sapiens, UniProt Q92843); settings: cited from earlier work
T1 sequence (Q92843 1-193): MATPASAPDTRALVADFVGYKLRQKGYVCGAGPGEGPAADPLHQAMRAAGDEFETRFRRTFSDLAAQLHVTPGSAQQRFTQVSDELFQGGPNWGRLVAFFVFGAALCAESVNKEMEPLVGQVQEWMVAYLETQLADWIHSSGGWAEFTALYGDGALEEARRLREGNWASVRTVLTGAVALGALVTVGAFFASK

[13] = tested on: human tumor cell lines derived from small cell lung carcinomas and lymphoid malignancies; settings: read-out: EC50, mechanism-based cytotoxicity; cited from earlier work
[14] = tested on: patients with intermediate or high-risk primary or secondary myelofibrosis; settings: ruxolitinib monotherapy; cited from earlier work
[15] = tested on: spleen volume; settings: spleen volume inhibition, fixed to a published value, cited from earlier work
[16] = 22 subjects with ruxolitinib dose reduction

SMILES: CN(C)CC[C@H](CSc1ccccc1)Nc1ccc(S(=O)(=O)NC(=O)c2ccc(N3CCN(Cc4ccccc4-c4ccc(Cl)cc4)CC3)cc2)cc1[N+](=O)[O-] [ABT-737]
- cell killing activity [1]: cell killing activity
- endogenous erythroid colonies growing in the absence of erythropoietin ([2]; 500 nM ABT-737): significantly inhibited
- endogenous erythroid colonies growing in the absence of erythropoietin ([2]; 100-300 nM ABT-737 combined with a JAK-2 inhibitor): further suppressed
- proliferation of myeloproliferative neoplasm cells [2]: ability to block the proliferation

SMILES: CC1(C)CCC(c2ccc(Cl)cc2)=C(CN2CCN(c3ccc(C(=O)NS(=O)(=O)c4ccc(N[C@H](CCN5CCOCC5)CSc5ccccc5)c(S(=O)(=O)C(F)(F)F)c4)cc3)CC2)C1 [Navitoclax, 4-(4-{[2-(4-chlorophenyl)-5,5-dimethyl-1-cyclohexen-1-yl]methyl}-1-piperazinyl)-N-[(4-{[(2R)-4-(4-morpholinyl)-1-(phenylsulfanyl)-2-butanyl]amino}-3-[(trifluoromethyl)sulfonyl]phenyl)sulfonyl]benzamide]
- Navitoclax EC50, estimate [3]: 4.37 µg/mL
- cell lines with potent single agent activity [4]: 10 of 22
- overcoming resistance to JAK-2 inhibitors [5]: ability to overcome that resistance
- Navitoclax EC50, estimate and 95% confidence interval ([6]; effect on platelets, fitted to data of 34 subjects): 3.61 (1.97; 6.58) mg/L
- Dose Delay/Interruption: More Than One Interruption, % ([7]; human, in vivo): (39.1) %
- Dose Delay/Interruption: No Interruption, % ([7]; human, in vivo): (34.8) %
- Dose Delay/Interruption: Only One Interruption, % ([7]; human, in vivo): (26.1) %
- Dose Reduction: More Than One Dose Reduction, % ([7]; human, in vivo): (39.1) %
- Dose Reduction: No Dose Reduction, % ([7]; human, in vivo): (17.4) %
- Dose Reduction: Only One Dose Reduction, % ([7]; human, in vivo): (43.5) %
- Reasons for Dose Delay/Interruption: Adverse Events, % ([7]; human, in vivo): (52.2) %
- Reasons for Dose Delay/Interruption: Anemia, % ([7]; human, in vivo): (4.3) %
- Reasons for Dose Delay/Interruption: Diarrhea, % ([7]; human, in vivo): (4.3) %
- Reasons for Dose Delay/Interruption: Other adverse events, % ([7]; human, in vivo): (17.4) %
- Reasons for Dose Delay/Interruption: Thrombocytopenia, % ([7]; human, in vivo): (34.8) %
- Reasons for Dose Reduction: Adverse Events, % ([7]; human, in vivo): (73.9) %
- Reasons for Dose Reduction: Anemia, % ([7]; human, in vivo): (17.4) %
- Reasons for Dose Reduction: Diarrhea, % ([7]; human, in vivo): (8.7) %
- Reasons for Dose Reduction: Other adverse events, % ([7]; human, in vivo): (30.4) %
- Reasons for Dose Reduction: Thrombocytopenia, % ([7]; human, in vivo): (47.8) %
- Reasons for Dose Delay/Interruption: Other (non-adverse event), % ([7]; in vivo): (30.4) %
- Reasons for Dose Reduction: Other (non-adverse event), % ([7]; in vivo): (17.4) %
- Navitoclax Emax ([8]; fixed, based on Kaefer et al.): 5
- cell killing activity [1]: cell killing activity
- decrease of navitoclax AUC∞ [9]: 41%
- decrease of navitoclax Cmax [9]: 16%
- impact on navitoclax Cmax [10]: no impact
- increase of navitoclax AUC∞ [10]: 1.55 fold
- survival of mice with JAK-2-mutated tumors ([11]; combination of navitoclax and a JAK-2 inhibitor vs either agent alone): superior to either agent alone
- growth of tumors ([11]; navitoclax added to a JAK-2 inhibitor): significantly slowing the growth of tumors
- Ki [12]: ≤ 0.001 µM
- EC50 [13]: ≤ 1 µM

SMILES: N#CC[C@H](C1CCCC1)n1cc(-c2ncnc3[nH]ccc23)cn1 [Ruxolitinib, (R)-3-(4-(7H-pyrrolo[2,3-d]pyrimidin-4-yl)-1H-pyrazol-1-yl)-3-cyclopentylpropanenitrile]
- Ruxolitinib EC50, estimate [3]: 0.0144 µg/mL
- ruxolitinib factor for relative pseudo baseline platelet count [6]: 1.53 fold
- drop in platelet count ([6]; at average ruxolitinib concentration): ~36%
- BaselineFactor (ruxolitinib factor on baseline platelet count), estimate and 95% confidence interval ([6]; pseudo baseline at initiation of ruxolitinib relative to baseline at initiation of navitoclax): 1.53 (1.41; 1.65)
- ruxolitinib dose reductions due to anemia [7, 16]: 18.2%
- ruxolitinib dose reductions due to thrombocytopenia [7, 16]: 86.4%
- subjects whose ruxolitinib dose was reduced to 10 mg BID ([7]; 25 subjects enrolled on ruxolitinib >10 mg BID): 88%
- Ruxolitinib EC50 [8]: 0.0825 µg/mL
- Ruxolitinib EC50 ([8]; listed as ruxolitinib): 0.08248 µg/mL
- Ruxolitinib Emax ([8]; fixed, assumed (JAKAFI approval package)): 1
- patients achieving spleen volume reduction of ≥35% (SVR35) [14]: approximately 40%
- time after start of monotherapy within which SVR35 is typically observed [14]: ≤ 12 weeks
- Ruxolitinib Emax [15]: 0.765 fixed
- Ruxolitinib Emax ([15]; listed as ruxolitinib): 0.765
